Laboratory results taken from the NIST ThermoML archive (doi:10.1016/j.tca.2015.08.013).

Test: relative permittivity at various frequencies (dimensionless)
Conditions: 99 kPa, Liquid, Frequency=2 MHz, Parallel plate capacitor

c1ccoc1 [furan]
Conditions | relative permittivity
278.15 K | 3.124
280.65 K | 3.094
283.15 K | 3.068
285.65 K | 3.036
288.15 K | 3.009
290.65 K | 2.988
293.15 K | 2.958
295.65 K | 2.934
298.15 K | 2.913
300.65 K | 2.892
303.15 K | 2.865

Cc1ccco1 [2-methylfuran]
Conditions | relative permittivity
278.15 K | 2.976
280.65 K | 2.967
283.15 K | 2.944
285.65 K | 2.933
288.15 K | 2.911
290.65 K | 2.893
293.15 K | 2.874
295.65 K | 2.854
298.15 K | 2.84
300.65 K | 2.814
303.15 K | 2.8
305.65 K | 2.775
308.15 K | 2.76
310.65 K | 2.735
313.15 K | 2.72
315.65 K | 2.696
318.15 K | 2.678
320.65 K | 2.656
323.15 K | 2.636
325.65 K | 2.617
328.15 K | 2.596
330.65 K | 2.577
333.15 K | 2.556
335.65 K | 2.538
338.15 K | 2.518

Cc1ccc(C)o1 [2,5-dimethylfuran]
Conditions | relative permittivity
278.15 K | 2.562
280.65 K | 2.553
283.15 K | 2.538
285.65 K | 2.526
288.15 K | 2.516
290.65 K | 2.499
293.15 K | 2.492
295.65 K | 2.472
298.15 K | 2.462
300.65 K | 2.445
303.15 K | 2.434
305.65 K | 2.418
308.15 K | 2.404
310.65 K | 2.391
313.15 K | 2.376
315.65 K | 2.364
318.15 K | 2.349
320.65 K | 2.337
323.15 K | 2.321
325.65 K | 2.31
328.15 K | 2.292
330.65 K | 2.283
333.15 K | 2.272
335.65 K | 2.256
338.15 K | 2.245
